# Counter-ions that a name gives are not always drawn. Like-named read-outs stand apart in the source and are kept apart here.
# Tests used:
# Type in all cases: cell-based
# [1] = test system: Enterococcus faecalis; experiment: in vitro bacteriostatic activity, agar dilution MIC
# [2] = test system: Enterococcus faecium; experiment: as above
# [3] = test system: Staphylococcus epidermidis ATCC 12228; experiment: in vitro bacteriostatic activity, agar dilution MIC, quality control strain; conditions: ATCC12228
# [4] = test system: Staphylococcus epidermidis MSSE; experiment: in vitro bacteriostatic activity, agar dilution MIC
# [5] = test system: Staphylococcus aureus MSSA; experiment: as above; conditions: Staphylococcus aureus, MSSA
# [6] = test system: Streptococcus pneumoniae; experiment: as above
# [7] = Enterococcus faecalis, ATCC29212, Enterococcus faecalis ATCC 29212, read-out: MIC
# [8] = Enterococcus faecalis, ATCC51299, Enterococcus faecalis (high endurance) ATCC 51299, read-out: MIC
# [9] = Enterococcus faecalis, Enterococcus faecalis 12-11, read-out: MIC
# [10] = Enterococcus faecalis, Enterococcus faecalis 12-12, read-out: MIC
# [11] = Enterococcus faecalis, Enterococcus faecalis 12-13, read-out: MIC
# [12] = Enterococcus faecalis, Enterococcus faecalis 12-14, read-out: MIC
# [13] = Enterococcus faecalis, Enterococcus faecalis 12-17, read-out: MIC
# [14] = Enterococcus faecalis, Enterococcus faecalis 12-18, read-out: MIC
# [15] = Enterococcus faecalis, Enterococcus faecalis 12-19, read-out: MIC
# [16] = Enterococcus faecalis, Enterococcus faecalis 12-20, read-out: MIC
# [17] = Enterococcus faecalis, Enterococcus faecalis 12-21, read-out: MIC
# [18] = Enterococcus faecalis, Enterococcus faecalis 12-22, read-out: MIC
# [19] = Enterococcus faecium, ATCC33186, Enterococcus faecium ATCC 33186, read-out: MIC
# [20] = Enterococcus faecium, Enterococcus faecium 12-7, read-out: MIC
# [21] = Enterococcus faecium, Enterococcus faecium 12-8, read-out: MIC
# [22] = Enterococcus faecium, Enterococcus faecium 12-9, read-out: MIC
# [23] = Enterococcus faecium, Enterococcus faecium 12-10, read-out: MIC
# [24] = Enterococcus faecium, Enterococcus faecium 12-11, read-out: MIC
# [25] = Enterococcus faecium, Enterococcus faecium 12-12, read-out: MIC
# [26] = Enterococcus faecium, Enterococcus faecium 12-13, read-out: MIC
# [27] = Enterococcus faecium, Enterococcus faecium 12-14, read-out: MIC
# [28] = Enterococcus faecium, Enterococcus faecium 12-15, read-out: MIC
# [29] = Enterococcus faecium, Enterococcus faecium 12-16, read-out: MIC
# [30] = Staphylococcus epidermidis, Staphylococcus epidermidis MSSE 12-12, read-out: MIC
# [31] = Staphylococcus epidermidis, Staphylococcus epidermidis MSSE 12-13, read-out: MIC
# [32] = Staphylococcus epidermidis, Staphylococcus epidermidis MSSE 12-14, read-out: MIC
# [33] = Staphylococcus epidermidis, Staphylococcus epidermidis MSSE 12-15, read-out: MIC
# [34] = Staphylococcus epidermidis, Staphylococcus epidermidis MSSE 12-16, read-out: MIC
# [35] = Staphylococcus epidermidis, Staphylococcus epidermidis MSSE 12-17, read-out: MIC
# [36] = Staphylococcus epidermidis, Staphylococcus epidermidis MSSE 12-18, read-out: MIC
# [37] = Staphylococcus epidermidis, Staphylococcus epidermidis MSSE 12-19, read-out: MIC
# [38] = Staphylococcus aureus MSSA 12-11, read-out: MIC
# [39] = Staphylococcus aureus MSSA 12-13, read-out: MIC
# [40] = Staphylococcus aureus MSSA 12-14, read-out: MIC
# [41] = Staphylococcus aureus MSSA 12-15
# [42] = Staphylococcus aureus MSSA 12-16, read-out: MIC
# [43] = Staphylococcus aureus MSSA 12-17, read-out: MIC
# [44] = Staphylococcus aureus MSSA 12-18
# [45] = Staphylococcus aureus MSSA 12-19, read-out: MIC
# [46] = Staphylococcus aureus MSSA 12-20, read-out: MIC
# [47] = Staphylococcus aureus MSSA 12-21
structure (smiles),measurement,setting,value
"CC[C@H]1OC(=O)[C@H](C)[C@@H](O[C@H]2C[C@@](C)(OC)[C@@H](O)[C@H](C)O2)[C@H](C)[C@@H](O[C@@H]2O[C@H](C)C[C@H](N(C)C)[C@H]2O)[C@](C)(O)C[C@@H](C)CN(C)[C@H](C)[C@@H](O)[C@]1(C)O [azithromycin, Azithromycin]",MIC,[1]; [7],4 µg/mL
same,MIC,[1]; [8],> 128 µg/mL
same,MIC,[1]; [9],> 128 µg/mL
same,MIC,[1]; [10],4 µg/mL
same,MIC,[1]; [11],> 128 µg/mL
same,MIC,[1]; [12],1 µg/mL
same,MIC,[1]; [13],> 128 µg/mL
same,MIC,[1]; [14],> 128 µg/mL
same,MIC,[1]; [15],> 128 µg/mL
same,MIC,[1]; [16],> 128 µg/mL
same,MIC,[1]; [17],> 128 µg/mL
same,MIC,[1]; [18],> 128 µg/mL
same,MIC,[2]; [19],2 µg/mL
same,MIC,[2]; [20],> 128 µg/mL
same,MIC,[2]; [21],1 µg/mL
same,MIC,[2]; [22],> 128 µg/mL
same,MIC,[2]; [23],> 128 µg/mL
same,MIC,[2]; [24],> 128 µg/mL
same,MIC,[2]; [25],> 128 µg/mL
same,MIC,[2]; [26],> 128 µg/mL
same,MIC,[2]; [27],> 128 µg/mL
same,MIC,[2]; [28],> 128 µg/mL
same,MIC,[2]; [29],> 128 µg/mL
same,MIC,[3]; Staphylococcus epidermidis,0.125 µg/mL
same,MIC,[4]; Staphylococcus epidermidis,128 µg/mL
same,MIC,[4]; Staphylococcus epidermidis MSSE 12-20,128 µg/mL
same,MIC,[4]; [30],4 µg/mL
same,MIC,[4]; [31],> 128 µg/mL
same,MIC,[4]; [32],8 µg/mL
same,MIC,[4]; [33],8 µg/mL
same,MIC,[4]; [34],64 µg/mL
same,MIC,[4]; [35],8 µg/mL
same,MIC,[4]; [36],16 µg/mL
same,MIC,[4]; [37],16 µg/mL
same,MIC,[5]; [38],> 128 µg/mL
same,MIC,[5]; [39],0.25 µg/mL
same,MIC,[5]; [40],> 128 µg/mL
same,MIC,[5]; [41],0.125 µg/mL
same,MIC,[5]; [42],> 128 µg/mL
same,MIC,[5]; [43],> 128 µg/mL
same,MIC,[5]; [44],128 µg/mL
same,MIC,[5]; [45],> 128 µg/mL
same,MIC,[5]; [46],> 128 µg/mL
same,MIC,[5]; [47],128 µg/mL
"CO/N=C(\C(=O)N[C@@H]1C(=O)N2C(C(=O)[O-])=C(C[N+]3(C)CCCC3)CS[C@H]12)c1csc(N)n1 [cefepime, Cefepime hydrochloride]",MIC,[1]; Enterococcus faecalis 12-11,>128 µg/mL
same,MIC,[1]; Enterococcus faecalis 12-13,>128 µg/mL
same,MIC,"[1]; Enterococcus faecalis, ATCC29212, Enterococcus faecalis ATCC 29212",16 µg/mL
same,MIC,"[1]; Enterococcus faecalis, ATCC51299, Enterococcus faecalis (high endurance) ATCC 51299",32 µg/mL
same,MIC,"[1]; Enterococcus faecalis, Enterococcus faecalis 12-12",4 µg/mL
same,MIC,"[1]; Enterococcus faecalis, Enterococcus faecalis 12-14",8 µg/mL
same,MIC,"[1]; Enterococcus faecalis, Enterococcus faecalis 12-17",32 µg/mL
same,MIC,"[1]; Enterococcus faecalis, Enterococcus faecalis 12-18",16 µg/mL
same,MIC,"[1]; Enterococcus faecalis, Enterococcus faecalis 12-19",16 µg/mL
same,MIC,"[1]; Enterococcus faecalis, Enterococcus faecalis 12-20",16 µg/mL
same,MIC,"[1]; Enterococcus faecalis, Enterococcus faecalis 12-21",16 µg/mL
same,MIC,"[1]; Enterococcus faecalis, Enterococcus faecalis 12-22",32 µg/mL
same,MIC,[2]; Enterococcus faecium 12-7,>128 µg/mL
same,MIC,[2]; Enterococcus faecium 12-8,>128 µg/mL
same,MIC,[2]; Enterococcus faecium 12-9,>128 µg/mL
same,MIC,[2]; Enterococcus faecium 12-10,>128 µg/mL
same,MIC,[2]; Enterococcus faecium 12-11,>128 µg/mL
same,MIC,[2]; Enterococcus faecium 12-12,>128 µg/mL
same,MIC,[2]; Enterococcus faecium 12-13,>128 µg/mL
same,MIC,[2]; Enterococcus faecium 12-14,>128 µg/mL
same,MIC,[2]; Enterococcus faecium 12-15,>128 µg/mL
same,MIC,[2]; Enterococcus faecium 12-16,>128 µg/mL
same,MIC,"[2]; Enterococcus faecium, ATCC33186, Enterococcus faecium ATCC 33186",16 µg/mL
same,MIC,[3]; Staphylococcus epidermidis,1 µg/mL
same,MIC,"[4]; Staphylococcus epidermidis, Staphylococcus epidermidis MSSE 12-11",1 µg/mL
same,MIC,"[4]; Staphylococcus epidermidis, Staphylococcus epidermidis MSSE 12-12",1 µg/mL
same,MIC,"[4]; Staphylococcus epidermidis, Staphylococcus epidermidis MSSE 12-13",1 µg/mL
same,MIC,"[4]; Staphylococcus epidermidis, Staphylococcus epidermidis MSSE 12-14",16 µg/mL
same,MIC,"[4]; Staphylococcus epidermidis, Staphylococcus epidermidis MSSE 12-15",16 µg/mL
same,MIC,"[4]; Staphylococcus epidermidis, Staphylococcus epidermidis MSSE 12-16",0.25 µg/mL
same,MIC,"[4]; Staphylococcus epidermidis, Staphylococcus epidermidis MSSE 12-17",2 µg/mL
same,MIC,"[4]; Staphylococcus epidermidis, Staphylococcus epidermidis MSSE 12-18",1 µg/mL
same,MIC,"[4]; Staphylococcus epidermidis, Staphylococcus epidermidis MSSE 12-19",1 µg/mL
same,MIC,"[4]; Staphylococcus epidermidis, Staphylococcus epidermidis MSSE 12-20",2 µg/mL
same,MIC,[5]; Staphylococcus aureus MSSA 12-11,4 µg/mL
same,MIC,[5]; Staphylococcus aureus MSSA 12-13,4 µg/mL
same,MIC,[5]; Staphylococcus aureus MSSA 12-14,2 µg/mL
same,MIC,[5]; [41],2 µg/mL
same,MIC,[5]; Staphylococcus aureus MSSA 12-16,4 µg/mL
same,MIC,[5]; Staphylococcus aureus MSSA 12-17,4 µg/mL
same,MIC,[5]; [44],2 µg/mL
same,MIC,[5]; Staphylococcus aureus MSSA 12-19,2 µg/mL
same,MIC,[5]; Staphylococcus aureus MSSA 12-20,2 µg/mL
same,MIC,[5]; [47],4 µg/mL
"CC1(C)S[C@@H]2[C@H](NC(=O)Cc3ccccc3)C(=O)N2[C@H]1C(=O)O [penicillin, Benzylpenicillin sodium]",MIC,[1]; [7],1 µg/mL
same,MIC,[1]; [8],1 µg/mL
same,MIC,[1]; [9],> 128 µg/mL
same,MIC,[1]; [10],1 µg/mL
same,MIC,[1]; [11],32 µg/mL
same,MIC,[1]; [12],1 µg/mL
same,MIC,[1]; [13],2 µg/mL
same,MIC,[1]; [14],2 µg/mL
same,MIC,[1]; [15],2 µg/mL
same,MIC,[1]; [16],2 µg/mL
same,MIC,[1]; [17],2 µg/mL
same,MIC,[1]; [18],1 µg/mL
same,MIC,[2]; [19],2 µg/mL
same,MIC,[2]; [20],128 µg/mL
same,MIC,[2]; [21],> 128 µg/mL
same,MIC,[2]; [22],128 µg/mL
same,MIC,[2]; [23],> 128 µg/mL
same,MIC,[2]; [24],128 µg/mL
same,MIC,[2]; [25],> 128 µg/mL
same,MIC,[2]; [26],> 128 µg/mL
same,MIC,[2]; [27],> 128 µg/mL
same,MIC,[2]; [28],128 µg/mL
same,MIC,[2]; [29],128 µg/mL
same,MIC,"[6]; ATCC49619, Streptococcus pneumonia ATCC 49619",0.2 µg/mL
same,MIC,[6]; Streptococcus pneumonia 12-6,0.05 µg/mL
same,MIC,[6]; Streptococcus pneumonia 12-7,0.1 µg/mL
same,MIC,[6]; Streptococcus pneumonia 12-8,0.1 µg/mL
same,MIC,[6]; Streptococcus pneumonia 12-9,0.1 µg/mL
same,MIC,[6]; Streptococcus pneumonia 12-10,0.2 µg/mL
same,MIC,[6]; Streptococcus pneumoniae 12-1,0.1 µg/mL
same,MIC,[6]; Streptococcus pneumoniae 12-2,0.2 µg/mL
same,MIC,[6]; Streptococcus pneumoniae 12-3,0.1 µg/mL
same,MIC,[6]; Streptococcus pneumoniae 12-4,0.4 µg/mL
same,MIC,[6]; Streptococcus pneumoniae 12-5,0.05 µg/mL
same,MIC,"[3]; Staphylococcus epidermidis ATCC 12228, read-out: MIC",0.5 µg/mL
same,MIC,"[4]; Staphylococcus epidermidis, Staphylococcus epidermidis MSSE 12-11, read-out: MIC",0.03 µg/mL
same,MIC,[4]; [30],0.06 µg/mL
same,MIC,[4]; [31],0.5 µg/mL
same,MIC,[4]; [32],8 µg/mL
same,MIC,[4]; [33],8 µg/mL
same,MIC,[4]; [34],0.06 µg/mL
same,MIC,[4]; [35],0.03 µg/mL
same,MIC,[4]; [36],0.06 µg/mL
same,MIC,[4]; [37],0.06 µg/mL
same,MIC,"[4]; Staphylococcus epidermidis, Staphylococcus epidermidis MSSE 12-20, read-out: MIC",0.03 µg/mL
same,MIC,[5]; [38],0.5 µg/mL
same,MIC,[5]; [39],0.5 µg/mL
same,MIC,[5]; [40],0.5 µg/mL
same,MIC,"[5]; Staphylococcus aureus MSSA 12-15, read-out: MIC",0.25 µg/mL
same,MIC,[5]; [42],0.5 µg/mL
same,MIC,[5]; [43],0.125 µg/mL
same,MIC,"[5]; Staphylococcus aureus MSSA 12-18, read-out: MIC",0.25 µg/mL
same,MIC,[5]; [45],0.25 µg/mL
same,MIC,[5]; [46],0.5 µg/mL
same,MIC,"[5]; Staphylococcus aureus MSSA 12-21, read-out: MIC",0.25 µg/mL

# Reference: EP2826473A1, “NOVEL USE OF PATCHOULOL” (Chengdu Huasun Group Inc., Ltd., priority 2012, dated 2013)
